The results in this text go back to patent publication US12466821B2 (Novartis AG, priority 2018, dated 2025).

SMILES strings stand for the structures.

Test [1] has as its target human CMV DNA polymerase UL54 (Human cytomegalovirus (strain AD169) (HHV-5) (Human herpesvirus 5), UniProt P08546). Kind of test: CMV polymerase biochemical assay (molecular beacon-based). In short, it runs like this: (§1)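 Readout was beacon fluorescence (ex 480, em 535 nm), used to derive IC50. Each dNTP was at 1.25 uM, with 200 nM primer and 100 nM beacon, after a 30-min RT inhibitor preincubation. Enzyme was 625 pM for HSV UL30 (20 min RT reaction) or 100 pM for CMV UL54 (60 min RT), both sf9-expressed MBP fusions, in pH 7.5 Tris buffer with MgCl2.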

Test [2] addresses human HSV DNA polymerase UL30 (Human herpesvirus 1 (strain 17) (HHV-1) (Human herpes simplex virus 1), UniProt P04293). Kind of test: HSV polymerase biochemical assay (molecular beacon-based). Put shortly:
as §1

Test [3] relates to Luciferase-encoding HCMV, AD169 strain. Nature of the test: CMV Luciferase assay (cellular herpesvirus replication). The note with it: Human betaherpesvirus 5, AD169, read-out: CMV-Luc Cellular EC50. It counts as cell-based. Put shortly:
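Neonatal human dermal fibroblasts were pretreated 1 h with compound (final 0.0159–50 μM or 0.00318–10 μM, 0.5% DMSO), then infected at MOI 1 with AD169 carrying pp28-promoter luciferase. After 72 h at 37 °C, Renilla-Glo luminescence normalized to no-virus and virus-only controls; EC50 by 4-parameter logistic model.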

A word on the IC50: it is the concentration at which inhibition is half-maximal. The low end stands for greater potency in that assay, the high end for weaker potency in that assay. Broadly, the EC50 is the concentration needed to bring the measured effect to its halfway point. Regarding `CN(CCN1CCn2c(c(CCCO)cc(C(=O)NCc3ccc(Cl)cc3)c2=O)C1=O)S(C)(=O)=O` [Example 157, N-(4-chlorobenzyl)-9-(3-hydroxypropyl)-2-(2-(N-methylmethylsulfonamido)ethyl)-1,6-dioxo-1,3,4,6-tetrahydro-2H-pyrido[1,2-a]pyrazine-7-carboxamide], the results for the IC50 in test [1] and in test [2] were 0.223 µM and 1.8 µM, respectively. Moreover, in test [3], the EC50 turned out to be 7.72 µM.

For the compound `CS(=O)(=O)CCCN1CCn2c(c(N3CCCC3)cc(C(=O)NCc3ccc(Cl)cc3)c2=O)C1=O` [Example 158, N-(4-chlorobenzyl)-2-(3-(methylsulfonyl)propyl)-1,6-dioxo-9-(pyrrolidin-1-yl)-1,3,4,6-tetrahydro-2H-pyrido[1,2-a]pyrazine-7-carboxamide], the IC50 came to 0.37 µM in test [1] and 4.09 µM in test [2]. In test [3], the EC50 is 13.3 µM.

Regarding `Cc1nc(-c2cc(C(=O)NCc3ccc(Cl)cc3)c(=O)n3c2C(=O)N(CCS(C)(=O)=O)CC3)no1` [Example 159, N-(4-chlorobenzyl)-9-(5-methyl-1,2,4-oxadiazol-3-yl)-2-(2-(methylsulfonyl)ethyl)-1,6-dioxo-1,3,4,6-tetrahydro-2H-pyrido[1,2-a]pyrazine-7-carboxamide], the IC50 in test [1] is 1.78 µM; in test [2] it was 5.66 µM. The EC50 in test [3] turned out to be 26.6 µM.

As to `N#Cc1ccc(CNC(=O)c2cc(F)c3n(c2=O)CCN(CC2(S(=O)(=O)C4CC4)CC2)C3=O)cc1` [Example 161], the IC50 in test [1] amounted to 0.0015 µM; in test [2], 0.0571 µM. In addition, the EC50 in test [3] stood at 0.0599 µM.

In the case of `N#Cc1ccc(CNC(=O)c2cc(F)c3n(c2=O)CCN(CC2(S(=O)(=O)C4CC4)CC2)C3=O)cc1F` [Example 162], the IC50 in test [1] amounted to 0.0019 µM; in test [2], 0.0796 µM. The EC50 in test [3] was 0.0413 µM.

With `O=C(NCc1ccc(Cl)cc1)c1cc(F)c2n(c1=O)CCN(CCN1CCCS1(=O)=O)C2=O` [Example 163], the half-maximal inhibitory concentration (IC50) in test [1] turned out to be 0.0232 µM; in test [2], 0.141 µM. For the same compound, the EC50 in test [3] amounted to 0.37 µM.

Take `CS(=O)(=O)C1(CN2CCn3c(c(F)cc(C(=O)NCc4ccc(C#N)cc4)c3=O)C2=O)CC1` [Example 164]: the IC50 is 0.013 µM in test [1] and 0.305 µM in test [2]. Also, in test [3], the EC50 was 0.249 µM.

Regarding `CN(C1(CN2CCn3c(c(F)cc(C(=O)NCc4ccc(Cl)cc4)c3=O)C2=O)CC1)S(C)(=O)=O` [Example 166], the figures for the IC50 in test [1] and in test [2] were 0.173 µM and 7.7 µM, respectively. Moreover, in test [3], the EC50 was found to be 10 µM.

With `COC1(CN2CCn3c(ccc(C(=O)NCc4ccc(Cl)cc4)c3=O)C2=O)CC1` [Example 171, N-(4-chlorobenzyl)-2-((1-methoxycyclopropyl)methyl)-1,6-dioxo-1,3,4,6-tetrahydro-2H-pyrido[1,2-a]pyrazine-7-carboxamide], the results for the IC50 in test [1] and in test [2] were 0.0729 µM and 2.8 µM, respectively. For the same compound, the EC50 in test [3] turned out to be 0.637 µM.

Consider `CN(C)C(=O)OC1(CN2CCn3c(ccc(C(=O)NCc4ccc(Cl)cc4)c3=O)C2=O)CC1` [Example 172, 1-((7-((4-chlorobenzyl)carbamoyl)-1,6-dioxo-1,3,4,6-tetrahydro-2H-pyrido[1,2-a]pyrazin-2-yl)methyl)cyclopropyl dimethyl carbamate], for which the IC50 in test [1] worked out at 2.4 µM; in test [2], 71 µM. Moreover, in test [3], the EC50 was found to be 10 µM.

As to `CS(=O)(=O)CC1(CN2CCn3c(ccc(C(=O)NCc4ccc(Cl)cc4)c3=O)C2=O)CC1` [Example 173, N-(4-chlorobenzyl)-2-((1-((methylsulfonyl)methyl)cyclopropyl)methyl)-1,6-dioxo-1,3,4,6-tetrahydro-2H-pyrido[1,2-a]pyrazine-7-carboxamide], the values for the IC50 in test [1] and in test [2] were 0.0206 µM and 0.232 µM, respectively. Also, the EC50 in test [3] turned out to be 0.364 µM.

As to `CN(C1(CN2CCn3c(ccc(C(=O)NCc4ccc(Cl)cc4)c3=O)C2=O)CC1)S(C)(=O)=O` [Example 174], the IC50 was 0.0643 µM in test [1] and 2.68 µM in test [2]. In addition, the EC50 in test [3] worked out at 4.2 µM.

As for `CC(C)(C(=O)O)S(=O)(=O)C1(CN2CCn3c(ccc(C(=O)NCc4ccc(Cl)cc4)c3=O)C2=O)CC1` [Example 175, 2-((1-((7-((4-chlorobenzyl)carbamoyl)-1,6-dioxo-1,3,4,6-tetrahydro-2H-pyrido[1,2-a]pyrazin-2-yl)methyl)cyclopropyl)sulfonyl)-2-methylpropanoic acid], the IC50 is 0.0008 µM in test [1] and 0.0244 µM in test [2]. Besides, the EC50 in test [3] was determined as 6.05 µM.

On to `CC(C)(C(=O)NS(C)(=O)=O)S(=O)(=O)C1(CN2CCn3c(ccc(C(=O)NCc4ccc(Cl)cc4)c3=O)C2=O)CC1` [Example 176, N-(4-chlorobenzyl)-2-((1-((2-methyl-1-(methylsulfonamido)-1-oxopropan-2-yl)sulfonyl)cyclopropyl)methyl)-1,6-dioxo-1,3,4,6-tetrahydro-2H-pyrido[1,2-a]pyrazine-7-carboxamide], for which the IC50 in test [1] was determined as 0.0046 µM; in test [2], 0.0619 µM. Moreover, in test [3], the EC50 turned out to be 7.23 µM.

In the case of `CC(C)(C(N)=O)S(=O)(=O)C1(CN2CCn3c(ccc(C(=O)NCc4ccc(Cl)cc4)c3=O)C2=O)CC1` [Example 177, 2-((1-((1-amino-2-methyl-1-oxopropan-2-yl)sulfonyl)cyclopropyl)methyl)-N-(4-chlorobenzyl)-1,6-dioxo-1,3,4,6-tetrahydro-2H-pyrido[1,2-a]pyrazine-7-carboxamide], the IC50 was 0.0015 µM in test [1] and 0.0181 µM in test [2]. For the same compound, the EC50 in test [3] was 0.0124 µM.

In the case of `CC(C)(c1ncno1)S(=O)(=O)C1(CN2CCn3c(ccc(C(=O)NCc4ccc(Cl)cc4)c3=O)C2=O)CC1` [Example 178, 2-((1-((2-(1,2,4-oxadiazol-5-yl)propan-2-yl)sulfonyl)cyclopropyl)methyl)-N-(4-chlorobenzyl)-1,6-dioxo-1,3,4,6-tetrahydro-2H-pyrido[1,2-a]pyrazine-7-carboxamide], the IC50 in test [1] worked out at 0.0003 µM; in test [2], 0.01 µM. For the same compound, the EC50 in test [3] was 0.0434 µM.

In the case of `CC(C)(c1ncno1)S(=O)(=O)C1(CN2CCn3c(ccc(C(=O)NCc4ccc(C#N)cc4)c3=O)C2=O)CC1` [Example 179], the results for the IC50 in test [1] and in test [2] were 0.0004 µM and 0.0169 µM, respectively. Further, the EC50 in test [3] was 0.125 µM.

In the case of `CC(C)(CO)S(=O)(=O)C1(CN2CCn3c(ccc(C(=O)NCc4ccc(Cl)cc4)c3=O)C2=O)CC1` [Example 180, N-(4-chlorobenzyl)-2-((1-((1-hydroxy-2-methylpropan-2-yl)sulfonyl)cyclopropyl)methyl)-1,6-dioxo-1,3,4,6-tetrahydro-2H-pyrido[1,2-a]pyrazine-7-carboxamide], the figures for the IC50 in test [1] and in test [2] were 0.0002 µM and 0.0227 µM, respectively. In addition, the EC50 in test [3] was 0.0062 µM.

On to `CC(C)(CN)S(=O)(=O)C1(CN2CCn3c(ccc(C(=O)NCc4ccc(Cl)cc4)c3=O)C2=O)CC1` [Example 181, 2-((1-((1-amino-2-methylpropan-2-yl)sulfonyl)cyclopropyl)methyl)-N-(4-chlorobenzyl)-1,6-dioxo-1,3,4,6-tetrahydro-2H-pyrido[1,2-a]pyrazine-7-carboxamide], for which the IC50 was 0.0011 µM in test [1] and 0.0374 µM in test [2]. Besides, the EC50 in test [3] worked out at 0.0051 µM.

Take `CC(C)(CO)S(=O)(=O)C1(CN2CCn3c(ccc(C(=O)NCc4ccc(Cl)nc4)c3=O)C2=O)CC1` [Example 182]: the IC50 in test [1] stood at 0.0027 µM; in test [2] it was 0.0386 µM. For the same compound, the EC50 in test [3] worked out at 0.0483 µM.

On to `CC(C)(CO)S(=O)(=O)C1(CN2CCn3c(ccc(C(=O)NCc4ccc(C#N)nc4)c3=O)C2=O)CC1` [Example 183], for which the IC50 in test [1] came to 0.0029 µM; in test [2] it was 0.0367 µM. Also, the EC50 in test [3] came out at 0.145 µM.

For the compound `CC(C)(CN)S(=O)(=O)C1(CN2CCn3c(ccc(C(=O)NCc4ccc(C#N)cc4)c3=O)C2=O)CC1` [Example 184], the IC50 in test [1] was found to be 0.0039 µM; in test [2] it was 0.0603 µM. The EC50 in test [3] was 0.0316 µM.

`CC(C)(C#N)S(=O)(=O)C1(CN2CCn3c(ccc(C(=O)NCc4ccc(Cl)cc4)c3=O)C2=O)CC1` [Example 185, N-(4-chlorobenzyl)-2-((1-((2-cyanopropan-2-yl)sulfonyl)cyclopropyl)methyl)-1,6-dioxo-1,3,4,6-tetrahydro-2H-pyrido[1,2-a]pyrazine-7-carboxamide]: the IC50 worked out at 0.0012 µM in test [1] and 0.0295 µM in test [2]. Besides, the EC50 in test [3] amounted to 0.0189 µM.

Consider `CC(C)(c1nnn[nH]1)S(=O)(=O)C1(CN2CCn3c(ccc(C(=O)NCc4ccc(Cl)cc4)c3=O)C2=O)CC1` [Example 186, 2-((1-((2-(1H-tetrazol-5-yl)propan-2-yl)sulfonyl)cyclopropyl)methyl)-N-(4-chlorobenzyl)-1,6-dioxo-1,3,4,6-tetrahydro-2H-pyrido[1,2-a]pyrazine-7-carboxamide], for which the results for the IC50 in test [1] and in test [2] were 0.0012 µM and 0.0205 µM, respectively. The EC50 in test [3] came out at 6.66 µM.

With `COCC(C)(C)S(=O)(=O)C1(CN2CCn3c(ccc(C(=O)NCc4ccc(C#N)cc4)c3=O)C2=O)CC1` [Example 187], the IC50 in test [1] worked out at 0.0004 µM; in test [2], 0.0529 µM. In addition, the EC50 in test [3] came out at 0.0149 µM.

For `COC1(S(=O)(=O)C2(CN3CCn4c(ccc(C(=O)NCc5ccc(C#N)cc5)c4=O)C3=O)CC2)CC1` [Example 189], the figures for the IC50 in test [1] and in test [2] were 0.0011 µM and 0.0598 µM, respectively. Besides, the EC50 in test [3] was 0.0557 µM.
